Consider eleven compounds from ChEMBL document CHEMBL1201862, “PubChem BioAssay data set” (2004).

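Where inhibition never reached the appropriate level, the endpoint shown equals the highest concentration tested. Otherwise, values were interpolated linearly from a five-concentration, 48-hour dose response in 96-well plates. GI50 is the concentration that inhibits growth by half.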 Calls of active or inactive are those of the source. Cut-off read from the data, not from the text of the source: active = GI50 up to about 1.1 µM and inactive = higher.

Among the test systems are SK-MEL-2; RPMI-8226; NCI-H23; Malme-3M; A549; MDA-MB-231; HOP-62; OVCAR-8; U-251; HT-29; MOLT-4; MDA-N; UO-31; ACHN; CCRF-CEM; 786-0; OVCAR-4; SK-MEL-28; SNB-75.
What all share (assay): NCI anticancer screen, dose series, 48 h

For `CC(C)(C)C1CCC2c3c([nH]c4ccccc34)C3C(=O)N(c4ccccc4Cl)C(=O)C3C2C1` (centres undefined), the GI50 was 17.5 µM (inactive) with SK-MEL-2; 31.4 µM (inactive) with RPMI-8226; 14.4 µM (inactive) in the assay on NCI-H23; 17.3 µM (inactive) with Malme-3M; 9.2 µM (inactive) in the assay on A549; 10.3 µM (inactive) in the assay on MDA-MB-231. Moreover, the GI50 with HOP-62 is 14.5 µM (inactive); with OVCAR-8, 16 µM (inactive); with U-251, 15.6 µM (inactive); with HT-29, 5.86 µM (inactive); in the assay with MOLT-4 it was 17.9 µM (inactive); in the assay on MDA-N, 12.1 µM (inactive). For the same compound, the GI50 in the assay with UO-31 is 14.5 µM (inactive); with ACHN it was 14.1 µM (inactive); in the assay on CCRF-CEM, 15.3 µM (inactive); in the assay with 786-0, 10.3 µM (inactive).

With `CC(=O)NC1=C(Sc2ccc(Cl)cc2)C(=O)c2ccccc2C1=O`, the GI50 is 3.88 µM (inactive) in the assay on SK-MEL-2; 1.31 µM (inactive) in the assay with RPMI-8226; 5.28 µM (inactive) in the assay on NCI-H23; 2.97 µM (inactive) in the assay with Malme-3M; 11.5 µM (inactive) in the assay with A549; 3.04 µM (inactive) in the assay with MDA-MB-231. Further, the GI50 with OVCAR-8 is 2.04 µM (inactive); with OVCAR-4 it was 1.63 µM (inactive); in the assay on U-251, 3.84 µM (inactive); with HT-29 it was 12.2 µM (inactive); in the assay with MOLT-4 it was 0.374 µM (active); in the assay with SK-MEL-28, 2.7 µM (inactive). For the same compound, the GI50 is 1.76 µM (inactive) in the assay on MDA-N; 1.95 µM (inactive) in the assay with UO-31; 1.8 µM (inactive) in the assay on ACHN; 1.06 µM (active) in the assay on CCRF-CEM; 2.09 µM (inactive) with 786-0.

On to `N#CSCc1cccc(Nc2cc(=O)[nH]c(=O)[nH]2)c1`, for which the GI50 in the assay with SK-MEL-2 is > 100 µM (inactive); in the assay with RPMI-8226, 47.9 µM (inactive); with NCI-H23, > 100 µM (inactive); in the assay with SNB-75, > 100 µM (inactive); in the assay with Malme-3M, 31.8 µM (inactive); in the assay with A549, > 100 µM (inactive). The GI50 is > 100 µM (inactive) with MDA-MB-231; > 100 µM (inactive) in the assay with HOP-62; 72.1 µM (inactive) in the assay with OVCAR-8; 31.3 µM (inactive) in the assay with OVCAR-4; 94.4 µM (inactive) in the assay with U-251; 37.2 µM (inactive) with HT-29. Moreover, the GI50 in the assay with SK-MEL-28 is 57.8 µM (inactive); in the assay with MDA-N, 52.4 µM (inactive); in the assay on UO-31 it was > 100 µM (inactive); in the assay on ACHN, > 100 µM (inactive); in the assay on 786-0, > 100 µM (inactive).

Consider `CCC(=O)/C(=C\I)c1ccccc1`, for which the GI50 with SK-MEL-2 was 2.1 µM (inactive); with RPMI-8226, 3.33 µM (inactive); in the assay with NCI-H23, 3.71 µM (inactive); in the assay on SNB-75 it was 1.52 µM (inactive); in the assay with Malme-3M, 1.67 µM (inactive); in the assay with A549 it was 20.9 µM (inactive). For the same compound, the GI50 in the assay on MDA-MB-231 was 1.75 µM (inactive); in the assay with HOP-62 it was 21 µM (inactive); with OVCAR-8, 2 µM (inactive); with U-251 it was 2.23 µM (inactive); in the assay on HT-29, 0.931 µM (active); in the assay with MOLT-4, 2.23 µM (inactive). The GI50 with SK-MEL-28 is 2.7 µM (inactive); with MDA-N, 2.85 µM (inactive); with UO-31, 2.05 µM (inactive); with CCRF-CEM, 2.74 µM (inactive); in the assay with 786-0 it was 1.78 µM (inactive).

As for `Cc1cc(C)n2nc3nc(N)c(C#N)c(-c4ccccc4)c3c2n1`, the GI50 in the assay on SK-MEL-2, with RPMI-8226, with NCI-H23, in the assay on Malme-3M, in the assay on A549 and in the assay on MDA-MB-231 was > 100 µM (inactive) in each case. Also, the GI50 in the assay on HOP-62, in the assay with OVCAR-8, in the assay on OVCAR-4, in the assay with U-251, in the assay with HT-29 and in the assay on MOLT-4 was > 100 µM (inactive) each time. Moreover, the GI50 with SK-MEL-28, with MDA-N, in the assay on UO-31, in the assay on ACHN, in the assay with CCRF-CEM and in the assay on 786-0 was > 100 µM (inactive) in each case.

`O=C(CSc1nc2ccc(I)cc2c(=O)n1Cc1ccccc1)N/N=C/c1ccccc1`: the GI50 in the assay on SK-MEL-2 is 12 µM (inactive); in the assay with RPMI-8226 it was 82.4 µM (inactive); with NCI-H23, 17.5 µM (inactive); in the assay with SNB-75, 11.1 µM (inactive); in the assay on A549, 25.2 µM (inactive); in the assay with MDA-MB-231, 8.2 µM (inactive). For the same compound, the GI50 with HOP-62 was 6.82 µM (inactive); with OVCAR-8, 17.9 µM (inactive); in the assay on OVCAR-4 it was 34.2 µM (inactive); in the assay on U-251, 11.4 µM (inactive); in the assay on HT-29 it was 47.6 µM (inactive); in the assay on MOLT-4, 58.1 µM (inactive). Further, the GI50 in the assay on SK-MEL-28 is > 100 µM (inactive); with MDA-N, > 100 µM (inactive); in the assay with ACHN, 21.7 µM (inactive); in the assay with CCRF-CEM, 40.9 µM (inactive); in the assay with 786-0, 11.8 µM (inactive).

On to `N#Cc1c(-c2ccccc2)cc(-c2ccc(Cl)cc2)[nH]c1=S`, for which the GI50 in the assay with RPMI-8226 is 29.2 µM (inactive); in the assay with NCI-H23, 4.06 µM (inactive); with SNB-75 it was 37.1 µM (inactive); in the assay on Malme-3M it was 27 µM (inactive); with A549 it was 38.4 µM (inactive); in the assay with MDA-MB-231, 23.4 µM (inactive). Besides, the GI50 is 50.1 µM (inactive) in the assay with HOP-62; 43.6 µM (inactive) in the assay with OVCAR-8; 42.6 µM (inactive) in the assay on OVCAR-4; 21.3 µM (inactive) in the assay on U-251; 37 µM (inactive) with HT-29; 28.1 µM (inactive) in the assay on MOLT-4. In addition, the GI50 in the assay on SK-MEL-28 is 20.3 µM (inactive); in the assay with MDA-N it was 34.5 µM (inactive); in the assay on UO-31, 24.8 µM (inactive); with ACHN it was 21.5 µM (inactive); in the assay with CCRF-CEM it was 26.4 µM (inactive); with 786-0 it was 53.3 µM (inactive).

For the compound `COc1ccc(/N=C2\C(=N/c3ccc(OC)cc3)N(S(=O)(=O)c3ccccc3)C(=S)N2c2ccccc2)cc1`, the GI50 in the assay on SK-MEL-2, in the assay on RPMI-8226, with NCI-H23, in the assay with SNB-75, with Malme-3M and in the assay on A549 was > 100 µM (inactive) in each case. The GI50 in the assay with MDA-MB-231, in the assay on HOP-62, in the assay with OVCAR-8, with U-251, in the assay on HT-29 and in the assay with MOLT-4 was > 100 µM (inactive) each time. Also, the GI50 in the assay on SK-MEL-28, in the assay with MDA-N, in the assay on UO-31, with ACHN and in the assay on 786-0 was > 100 µM (inactive) in each case.

Consider `CCOc1cc(C=O)c2c(ccc3ccc(OC)c(OC)c32)c1OC`, for which the GI50 with SK-MEL-2 was 36.8 µM (inactive); in the assay on RPMI-8226, 15.5 µM (inactive); in the assay on NCI-H23, 64 µM (inactive); in the assay on SNB-75 it was 36.3 µM (inactive); in the assay with Malme-3M it was 55.7 µM (inactive); with A549, 46.1 µM (inactive). Moreover, the GI50 is > 100 µM (inactive) in the assay with MDA-MB-231; 50 µM (inactive) in the assay with OVCAR-8; 51.1 µM (inactive) in the assay with OVCAR-4; 88.9 µM (inactive) in the assay on U-251; 37.5 µM (inactive) in the assay with HT-29; 13.3 µM (inactive) in the assay with MOLT-4. The GI50 in the assay on SK-MEL-28 was 89.9 µM (inactive); with MDA-N, 57 µM (inactive); with UO-31, 66.8 µM (inactive); in the assay with ACHN it was 44 µM (inactive); with CCRF-CEM, 28.2 µM (inactive); with 786-0, > 100 µM (inactive).

Consider `CCOC(=O)c1cnc2oc3ccc(O)cc3c2c1C`, for which the GI50 in the assay on SK-MEL-2 is > 100 µM (inactive); with RPMI-8226, > 100 µM (inactive); in the assay with NCI-H23 it was > 100 µM (inactive); with Malme-3M, 29.9 µM (inactive); in the assay with A549, > 100 µM (inactive); in the assay on MDA-MB-231 it was > 100 µM (inactive). Further, the GI50 in the assay with OVCAR-8 is 61.8 µM (inactive); with OVCAR-4 it was 33.7 µM (inactive); in the assay with U-251 it was > 100 µM (inactive); in the assay on HT-29 it was > 100 µM (inactive); in the assay with MOLT-4 it was 47.4 µM (inactive); in the assay with SK-MEL-28 it was > 100 µM (inactive). Besides, the GI50 is > 100 µM (inactive) in the assay with MDA-N, > 100 µM (inactive) in the assay with ACHN, 32.7 µM (inactive) in the assay with CCRF-CEM and > 100 µM (inactive) with 786-0.

As to `CN(C)c1ccccc1CN1CCCN(Cc2ccccc2N(C)C)C1c1ccncc1`, the GI50 was 17.8 µM (inactive) in the assay with SK-MEL-2; 5.75 µM (inactive) in the assay with RPMI-8226; 18.3 µM (inactive) in the assay on NCI-H23; 17.6 µM (inactive) with SNB-75; 10.4 µM (inactive) in the assay with Malme-3M; 17.4 µM (inactive) in the assay on A549. For the same compound, the GI50 was 14.7 µM (inactive) in the assay on MDA-MB-231; 15.4 µM (inactive) in the assay with HOP-62; 15.4 µM (inactive) in the assay with OVCAR-8; 15 µM (inactive) with OVCAR-4; 23 µM (inactive) with U-251; 11.6 µM (inactive) in the assay on HT-29. Moreover, the GI50 in the assay on MOLT-4 was 18.1 µM (inactive); in the assay on SK-MEL-28, 9.06 µM (inactive); in the assay with MDA-N, 10.3 µM (inactive); with UO-31 it was 5.02 µM (inactive); in the assay with ACHN it was 24.8 µM (inactive); with 786-0, 13.1 µM (inactive).
